Assay results as given in patent US20080248002A1, “ANTI-ANGIOGENIC CELLULAR AGENT FOR CANCER THERAPY” (priority 1999, published 2008).

Experiments:
[1] = tested on: lymphoblastoid target AMK; assay: BFA / TM pre-treatment of CIK targets, 51Cr release assay, lymphoblastoid target AMK; type: cell-based; settings: target pre-treatment (TM 22 hr), 20:1 E:T ratio
Experimental: (§1) CIK targets were treated with BFA and/or tunicamycin (TM). […] This resistance is sustained after BFA is removed from the media.

OCI-Ly8 tumor targets = assay: BFA / TM pre-treatment of CIK targets, 51Cr release assay, OCI-Ly8 tumor targets; type: cell-based; settings: 20:1 E:T ratio
Experimental: as §1

EC targets = assay: BFA / conA treatment of CIK effector cells, lysis of EC targets; type: cell-based, human; settings: day 21 CIK effector cells pre-incubated 2 hours with 1 μM BFA or 0.1 μM conA
Experimental: (§2) Brefeldin A (BFA) blocks the transport of FasL from intracellular stores to the cell surface (Lippincott-Schwartz et al. (1989) Cell 56:801; Lippincott-Schwartz et al. (1990) Cell 60:821; and Orci et al. (1991) Cell 64:1183). […] BFA was dissolved at 100 μg/ml in 70% ethanol and used fresh or stored up to 4 weeks at −20° C. Prior to cytotoxicity assays, the cells were rinsed three times with PBS and BFA-free fresh medium was added.
(§3) Concanamycin A (conA) depletes perforin contained in cytotoxic T-cell granules (Kataoka et al. (1996) J. Immunol. 156:3678; Ohminami et al. (1999) Blood 93:925). 15 ConA-treated effector cells were used in cytotoxicity assays to approximate the fractional contribution of the perforin/granzyme pathway to the total CIK cell mediated cytotoxicity.
(§4) Louis, Mo.). The cells were then incubated for 2 hours at 37° C. in a humidified atmosphere of 5% CO2.
(§5) BFA treatment of effector cells and the associated block of FasL transport reduced CIK lysis of the tumor target OCI-Ly8 by 33%, but had no effect on the lysis of EC targets (FIG. 4).

OCI-Ly8 = assay: BFA / conA treatment of CIK effector cells, lysis of OCI-Ly8; type: cell-based; settings: day 21 CIK effector cells pre-incubated 2 hours with 1 μM BFA or 0.1 μM conA
Experimental: as §2, §3, §4, §5

EC = assay: BFA pre-treatment of CIK targets, 51Cr release assay, EC; type: cell-based; settings: targets pre-treated with 10 μM BFA, 20:1 E:T ratio
Experimental: as §1

## C[C@H]1CCC/C=C/[C@@H]2C[C@H](O)C[C@H]2[C@H](O)/C=C/C(=O)O1 [BFA, Brefeldin A]
[1]
  effect of target pre-treatment on CIK killing of lymphoblastoid targets: did not reduce killing
OCI-Ly8 tumor targets
  effect of target pre-treatment on CIK killing of tumor targets: did not reduce killing
EC targets
  effect on CIK lysis of EC targets: no effect
OCI-Ly8
  reduction of CIK lysis of OCI-Ly8: 33%
EC
  protection of EC from CIK mediated lysis: complete protection

## tunicamycin [TM]
[1]
  effect of target pre-treatment on CIK killing of lymphoblastoid targets: rendered susceptible
OCI-Ly8 tumor targets
  effect of target pre-treatment on CIK killing of tumor targets: Neither TM or TM and BFA together altered CIK mediated lysis

## C/C=C/[C@H]1O[C@@](O)([C@@H](C)[C@H](O)[C@H](C)[C@H]2OC(=O)/C(OC)=C/C(C)=C/[C@@H](C)[C@@H](O)[C@@H](CC)[C@@H](O)[C@H](C)C/C(C)=C/C=C/[C@@H]2OC)C[C@@H](O[C@H]2C[C@@H](O)[C@H](OC(N)=O)[C@@H](C)O2)[C@@H]1C [Con A, Concanamycin A]
EC targets
  effect on CIK lysis of EC targets: completely abolished EC lysis
OCI-Ly8
  reduction of CIK lysis of OCI-Ly8: 66%
